Results: the NIST ThermoML archive (doi:10.1016/j.fluid.2010.02.020)
“And” between values parts separate entries of the source, which are not always exact repeats. Identical values can stand only once.

Settings: for mass density: 101.33 kPa, Liquid, Vibrating tube method; for surface tension liquid-gas: Pendant drop shape

CCCCCn1cc[n+](C)c1.O=S(=O)([N-]S(=O)(=O)C(F)(F)F)C(F)(F)F
Settings	mass density [kg/m3]	surface tension liquid-gas
293.15 K	1408.1	–
303.15 K	1398.7	–
312.7 K	–	29.5 mN/m
313.15 K	1389.4	–
313.2 K	–	30.5 mN/m
323.15 K	1380.3	–
333.15 K	1371.2	–
333.2 K	–	28.3 mN/m
343.15 K	1362.1	–
353.15 K	1353.1	–
353.4 K	–	27.3 mN/m
353.7 K	–	27.2 mN/m
363.15 K	1344	–
373.15 K	1335	–
373.5 K	–	26.3 mN/m
373.7 K	–	26.6 mN/m
383.15 K	1325.9	–
393.15 K	1316.8	–
393.7 K	–	24.7 mN/m and 25.6 mN/m
403.15 K	1307.6	–
413.15 K	1298.4	–
413.6 K	–	24.6 mN/m
413.8 K	–	23.5 mN/m
423.15 K	1288.6	–
433.15 K	1279.7	–
433.5 K	–	22.6 mN/m
433.7 K	–	23.7 mN/m
443.15 K	1270.3	–
453.15 K	1260.8	–
453.5 K	–	21.7 mN/m
453.6 K	–	22.8 mN/m
463.15 K	1251.1	–
473.15 K	1241.3	–
473.3 K	–	21.1 mN/m
473.6 K	–	21.7 mN/m
493 K	–	21.6 mN/m
493.2 K	–	20.8 mN/m
512.9 K	–	20.1 mN/m

CCCCCCCCC[n+]1ccn(C)c1.O=S(=O)([N-]S(=O)(=O)C(F)(F)F)C(F)(F)F
Settings	mass density [kg/m3]
293.15 K	1303.1
303.15 K	1294.2
313.15 K	1285.5
323.15 K	1276.8
333.15 K	1268.3
343.15 K	1259.7
353.15 K	1251.3
363.15 K	1242.8
373.15 K	1234.3
383.15 K	1225.8
393.15 K	1217.4
403.15 K	1208.8
413.15 K	1200.3
423.15 K	1191.8
433.15 K	1183.2
443.15 K	1174.5
453.15 K	1165.7
463.15 K	1156.8
473.15 K	1147.8

CCCCCCCCCCn1cc[n+](C)c1.O=S(=O)([N-]S(=O)(=O)C(F)(F)F)C(F)(F)F
Settings	mass density [kg/m3]	surface tension liquid-gas
293.15 K	1284.9	–
303.15 K	1276	–
313.15 K	1267.4	–
313.2 K	–	28.7 mN/m
313.3 K	–	29.1 mN/m
314.1 K	–	27.7 mN/m
323.15 K	1258.8	–
333 K	–	26.7 mN/m
333.15 K	1250.3	–
333.3 K	–	27 mN/m
333.6 K	–	28.1 mN/m
343.15 K	1241.8	–
352.7 K	–	27 mN/m
353.15 K	1233.5	–
353.2 K	–	25.4 mN/m
353.3 K	–	25.3 mN/m
363.15 K	1225.1	–
372.6 K	–	26.3 mN/m
373.15 K	1216.7	–
373.3 K	–	24.3 mN/m
373.4 K	–	24.5 mN/m
383.15 K	1208.4	–
392.4 K	–	24.9 mN/m and 24.6 mN/m
393.15 K	1200	–
393.3 K	–	23.5 mN/m
403.15 K	1191.7	–
412.3 K	–	23.5 mN/m
412.5 K	–	23.6 mN/m
413.15 K	1183.3	–
413.5 K	–	22.4 mN/m
423.15 K	1174.8	–
432.2 K	–	22.9 mN/m
433 K	–	22.2 mN/m
433.15 K	1166.4	–
433.3 K	–	21.5 mN/m
443.15 K	1157.8	–
452.8 K	–	22.2 mN/m
452.9 K	–	21.2 mN/m
453.15 K	1148.9	–
453.2 K	–	20.4 mN/m
463.15 K	1140.2	–
472.7 K	–	21.1 mN/m
472.8 K	–	19.1 mN/m
473.15 K	1131.4	–
473.3 K	–	19.3 mN/m
492.5 K	–	20.1 mN/m
493.1 K	–	18.5 mN/m
513.8 K	–	17.5 mN/m
533.2 K	–	16.9 mN/m

CCCC[n+]1ccn(C)c1.O=S(=O)([N-]S(=O)(=O)C(F)(F)F)C(F)(F)F
Settings	mass density [kg/m3]	surface tension liquid-gas
293.15 K	1442.3	–
303.15 K	1432.8	–
312.6 K	–	31.9 mN/m
313.15 K	1423.4	–
313.3 K	–	31.9 mN/m and 30.4 mN/m
323.15 K	1414.1	–
332.6 K	–	30.8 mN/m
333.1 K	–	31.2 mN/m
333.15 K	1404.8	–
333.5 K	–	29.7 mN/m
343.15 K	1395.6	–
352.6 K	–	30.2 mN/m
353.15 K	1386.3	–
353.6 K	–	28.8 mN/m
353.7 K	–	30.1 mN/m
363.15 K	1377.1	–
372.7 K	–	27.9 mN/m
373.15 K	1367.9	–
373.6 K	–	28.1 mN/m
374.1 K	–	29.2 mN/m
383.15 K	1358.7	–
392.7 K	–	26.2 mN/m
393.15 K	1349.4	–
393.6 K	–	25.9 mN/m
394.2 K	–	28.1 mN/m
403.15 K	1340.1	–
412.5 K	–	26 mN/m
413.15 K	1330.7	–
413.6 K	–	25.6 mN/m
414.4 K	–	27.2 mN/m
423.15 K	1321.2	–
432.5 K	–	25.6 mN/m
432.6 K	–	24.9 mN/m
433.15 K	1311.6	–
434.5 K	–	26.6 mN/m
443.15 K	1301.9	–
452.2 K	–	24.4 mN/m and 24.2 mN/m
453.15 K	1292.1	–
455 K	–	25.8 mN/m
463.15 K	1282.2	–
472 K	–	23.3 mN/m
473 K	–	23.7 mN/m
473.15 K	1272	–
475.2 K	–	24.6 mN/m

CCCCCCCCCCCCCCn1cc[n+](C)c1.O=S(=O)([N-]S(=O)(=O)C(F)(F)F)C(F)(F)F
Settings	mass density [kg/m3]	surface tension liquid-gas [mN/m]
312.8 K	–	26.3
323.15 K	1193.1	–
323.3 K	–	24.9
333.15 K	1184.8	–
333.2 K	–	23.5
333.9 K	–	24.1
343.15 K	1176.6	–
353.15 K	1168.5	–
353.3 K	–	23.5
354 K	–	23.7
363.15 K	1160.5	–
373.15 K	1152.4	–
373.5 K	–	22.1
374 K	–	22.6
383.15 K	1144.4	–
393.15 K	1136.4	–
393.6 K	–	21.5
394.7 K	–	21.3
403.15 K	1128.4	–
413.15 K	1120.4	–
413.5 K	–	20.9
414.9 K	–	19.7
423.15 K	1112.4	–
433.15 K	1104.3	–
433.6 K	–	18.7
434.8 K	–	19.6
443.15 K	1096.2	–
453.15 K	1088	–
453.6 K	–	17.5
454.5 K	–	17.9
463.15 K	1079.7	–
473.15 K	1071.4	–
473.5 K	–	16.6
474.5 K	–	17
493.4 K	–	15.9
512.9 K	–	15.5
